Ends that are not written are not given here. spacer = not defined here
Legend:
HUVECs [1] = test: HUVEC colonization and proliferation on peptide-modified collagen; format: cell-based, human; conditions: 7,000 HUVECs, 48 hours at 37° C.
Protocol: In 96-well plates 7,000 HUVECs were plated on peptide-modified soluble collagen or unmodified collagen for 48 hours at 37° C. Plates were removed and washed and the remaining attached cells were detected using […]-GLO on a luminometer.

HUVECs [2] = test: Retention of HUVECs under shear stress on collagen-coated cover-slips; format: cell-based, human
Protocol: The ability of the collagen modified with endothelial cell binding peptide SEQ ID NO: 4 to retain HUVECs under shear stress was analyzed as follows. Glass cover-slips were coated with peptide conjugated collagen or unmodified collagen and seeded with HUVECs. Coverslips were secured in a polycarbonate slide with six 1 cm diameter wells enabling simultaneous testing of materials. A closed loop peristaltic pump was used to expose the samples to flow conditions for 30 minutes at laminar flow rates up to 12 dynes/cm^2 in PBS containing 2% FBS. The number of cells retained on the cover slip was determined using […]-GLO (INVITROGEN) and a luminometer.

human dermal fibroblasts = test: Fibroblast binding to peptide-modified collagen coated plates ([…]-GLO); format: cell-based
Protocol: The experiment was performed according to the following procedure. Cell-binding peptide (SEQ ID NO: 4) was covalently attached to soluble collagen as described herein at Example 7. 96-well plates were coated with various amounts of unmodified or the peptide-modified collagen (177 μmol peptide/g collagen) over night at 4° C. Unbound collagen was removed and the plates were blocked for 1 h. After washing, 5,000 human dermal fibroblasts were added per well in serum-free medium for 30 min at 37° C. The plates were washed, and bound cells were detected with […]-GLO (PROMEGA) using a luminometer. At 0.0025 μg collagen, fibroblast binding was increased 11-fold for the peptide-modified collagen compared to unmodified collagen (see FIG. 28).

HUVECs [3] = test: HUVEC capture and retention on peptide-modified collagen coated 96-well plates ([…]-GLO); format: cell-based, human
Protocol: After washing, 10,000 HUVECs were added per well in serum free medium for 30 min at 37° C. The plates were washed 3 times with PBS containing 2% FBS, and captured cells were detected with […]-GLO (INVITROGEN) using a luminometer and a standard curve. […] For FIG. 21B, the collagen was extracted in gel loading buffer, separated by PAGE, and total protein was stained with SIMPLYBLUE (INVITROGEN). […] Plates with captured HUVECs were prepared as described in FIG. 20A. […]

ECFCs = test: Capture of ECFCs in flow on collagen-coated coverslips (parallel plate flow chamber); format: cell-based, human; conditions: 2×10^6 ECFC circulated for 2 h at 37° C.
Protocol: The ability of the collagen modified with endothelial cell binding peptide SEQ ID NO: 4 to capture ECFCs in flow was analyzed as follows. Glass coverslips were coated with unmodified collagen or cell binding peptide modified-collagen and mounted in a polycarbonate parallel plate flow chamber. PBS/10% FBS was circulated through a closed 150 ml system to block the coverslips. Approximately 2×10^6 ECFC were injected into the system and were circulated for 2 h at 37° C. Coverslips were washed in PBS to remove loosely adhering cells, the remaining cells on the coverslips were lysed in CELLTITERGLO (INVITROGEN, CA), and the cells enumerated by luminescence against a standard curve.

HUVECs [4] = test: Endothelial cell phenotype and anti-thrombogenic protein expression on peptide-modified collagen; format: cell-based, human; conditions: HUVECs cultured 24 hours; t-PA and 6-keto Prostaglandin F1a ELISA, flow cytometry
Protocol: Once immobilized on a vascular graft, endothelial cells must retain their characteristic properties of promoting endothelialization. Therefore, the phenotype, viability, and anti-thrombogenic protein expression profiles were evaluated for endothelial cells in the presence of collagen modified with the endothelial cell binding peptide SEQ ID NO: 4 (generated according to Example 7 using BS^3 reagent). […] Specifically, HUVECs were plated on SEQ ID NO: 4 peptide-modified collagen, collagen with 10 μM free SEQ ID NO: 4 peptide or collagen alone for 24 hours. Flow cytometry was performed using a BD […], and ELISAs were performed according to manufacturers instructions. (FIGS. 22A & 22B). Tissue-type Plasminogen Activator (t-PA) and 6-keto Prostaglandin F1a protein expression levels secreted in this assay are aligned with other reports on cultured HUVECS (Kimura and Yokoi-Hayashi, Biochim Biophys Acta, 1996, 1310:1-4; Merhi-Soussi et al., J Leukoc Biol, 2000, 68:881-9).

human MSCs = test: Capture of MSCs from a mixed cell population with peptide on CELLECTION magnetic beads; format: cell-based; conditions: starting mixture 38% IM9, 56% U937, 4% MSC
From the text: In this experiment, biotinylated cell binding peptide, SEQ ID NO: 16, was attached to CELLECTION magnetic beads. The CELLECTION beads have streptavidin coupled to a magnetic particle through a DNA linker. Three different cell types, human MSCs, IM-9, and U937 cells were differentially labeled with […] dye and mixed in a ratio such that the MSCs represented ˜4% of the starting cell mixture (the percentage of each cell type in the starting mixture was 38% IM9, 56% U937, and 4% MSC). The cell binding peptide, SEQ ID NO: 16, was biotinylated as described herein at Example 2, as was a general cell binding peptide for use as a control peptide in the experiment. Magnetic particles with no peptide attached, as well as magnetic beads having attached either the cell binding peptide, SEQ ID NO: 16, or the control peptide were tested for their ability to capture human MSCs. The starting cell mixture was incubated with magnetic beads having either attached peptide or no peptide, the beads were washed, and the captured cells were released from the beads by DNase treatment. The cells were measured by flow cytometry histograms shown in 18A-18C. The magnetic beads without peptide captured little or no cells (FIG. 18B). The magnetic beads with attached cell binding peptide SEQ ID NO: 16 captured a cell population that was 96% MSCs (FIG. 18C).

fibroblast binding increase compared to unmodified collagen (human dermal fibroblasts; 0.0025 μg collagen, 5,000 human dermal fibroblasts, 30 min at 37° C.) [fold] | fibroblast binding at higher concentrations of collagen (human dermal fibroblasts; data not shown) | Substance | HUVEC colonization and proliferation versus unmodified collagen (HUVECs [1]) | cells captured versus unmodified collagen (HUVECs [2]; HUVECs, 30 minutes, laminar flow up to 12 dynes/cm^2) | effect of shear stress on cell capture (HUVECs [2]; laminar flow up to 12 dynes/cm^2, 30 minutes) | HUVECs retained versus unmodified collagen after agitation (HUVECs [3]; 1 hour with agitation in PBS containing 2% FBS) [fold] | increase in cell retention over unmodified collagen (HUVECs [3]; 10,000 HUVECs per well, serum free medium, 30 min at 37° C.) [fold] | cells captured in flow versus unmodified collagen (ECFCs) | endothelial cell phenotype and anti-thrombogenic protein secretion (HUVECs [4]) | MSCs in captured cell population (human MSCs) [%]
11 | Increased cell binding | peptide-modified collagen: soluble bovine type I collagen with SEQ ID NO: 4 covalently attached via BS^3 crosslinking reagent (SSFWDVCQGDGTCYGGGSR-{spacer-Lys}; cysteine pairing not given here; reading uncertain; also: conjugated to soluble bovine type I collagen via BS3 (site not given here)) | colonize and proliferate equally | about 3 fold | did not significantly affect cell capture | 7 | 3 | about 20 fold | maintained their endothelial cell phenotype and their ability to secrete anti-thrombogenic proteins | 
 |  | SSFRFGPLGTWNYPSTDNAE (also: biotin (position not given here)) [SEQ ID NO: 16, tested biotinylated] |  |  |  |  |  |  |  | 96
